The values that follow come from patent US20070213339A1 (Bayer Pharmaceuticals Corporation, priority 2004, published 2007).

Where only a bound is given, the exact number is not on record here.

In this assay the test system is Colo205 human colon carcinoma cell line. Briefly: In vitro tumor cell proliferation assay (MTS, CellTiter 96 Aqueous One Solution). The note with it: COLO 205, Colo205 cells, 72 hours compound exposure, MTS absorbance at 490 nm, read-out: IC50 (concentration of test compound required to inhibit proliferation of 50% of the cells). It is filed as cell-based. Put shortly:
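Colo205 cells seeded at 2000 cells/well in RPMI-1640 with 10% serum, exposed to compound for 72 h at 37 °C, 5% CO2, in a 5-point dose-response up to 10-20 μM. Viability read by MTS absorbance at 490 nm; IC50 from background-corrected percent inhibition by linear regression.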
For the molecule `O=C(O)c1cn(-c2cccc(CN3CCCCC3)c2)c2c(Cl)c(N3CCN(c4ccccn4)CC3)c(F)cc2c1=O` [Example 65, 8-chloro-6-fluoro-4-oxo-1-[3-(piperidin-1-yl-methyl)phenyl]-7-(4-pyridin-2-ylpiperazin-1-yl)-1,4-dihydroquinoline-3-carboxylic acid], the IC50 was 2000 to 20000 nM.

As for `O=C(O)c1cn(-c2cccc(CN3CCCCC3)c2)c2c(Cl)c(N3CCN(c4ncccn4)CC3)c(F)cc2c1=O` [Example 66, 8-chloro-6-fluoro-4-oxo-1-[3-(piperidin-1-yl-methyl)phenyl]-7-(4-pyrimidin-2-ylpiperazin-1-yl)-1,4-dihydroquinoline-3-carboxylic acid], the IC50 lay within 2000 to 20000 nM. For `O=C(O)c1cn(-c2cccc(CN3CCCCC3)c2)c2c(Cl)c(N3CCN(c4ccc(F)cc4)CC3)c(F)cc2c1=O` [Example 67, 8-chloro-6-fluoro-7-[4-(4-fluorophenyl)-piperazin-1-yl]-4-oxo-1-[3-(piperidin-1-ylmethyl)phenyl]-1,4-dihydroquinoline-3-carboxylic acid], the IC50 was in the range of 2000 to 20000 nM.

`O=C(O)c1cn(-c2cccc(CN3CCCCC3)c2)c2c(Cl)c(N3CCN(c4cccc(Cl)c4)CC3)c(F)cc2c1=O` [Example 68, 8-chloro-7-[4-(3-chlorophenyl)piperazin-1-yl]-6-fluoro-4-oxo-1-[3-(piperidin-1-ylmethyl)phenyl]-1,4-dihydroquinoline-3-carboxylic acid]: the IC50 is 2000 to 20000 nM. As for `CN(C)CCc1ccc(-n2cc(C(=O)O)c(=O)c3cc(F)c(N4CCN(c5ccccn5)CC4)c(Cl)c32)cc1` [Example 69, 8-chloro-1-{4-[2-(dimethylamino)ethyl]phenyl}-6-fluoro-4-oxo-7-(4-pyridin-2-ylpiperazin-1-yl)-1,4-dihydroquinoline-3-carboxylic acid], the IC50 was less than 500 nM.

As for `CN(C)CCc1ccc(-n2cc(C(=O)O)c(=O)c3cc(F)c(N4CCN(c5ccc(Cl)cc5)CC4)c(Cl)c32)cc1` [Example 70, 8-chloro-7-[4-(4-chlorophenyl)piperazin-1-yl]-1-{4-[2-(dimethylamino)ethyl]phenyl}-6-fluoro-4-oxo-1,4-dihydroquinoline-3-carboxylic acid], the IC50 lay within 500 to 2000 nM. The result for `CN(C)CCc1ccc(-n2cc(C(=O)O)c(=O)c3cc(F)c(N4CCN(c5ncccn5)CC4)c(Cl)c32)cc1` [Example 71, 8-chloro-1-{4-[2-(dimethylamino)ethyl]phenyl}-6-fluoro-4-oxo-7-(4-pyrimidin-2-ylpiperazin-1-yl)-1,4-dihydroquinoline-3-carboxylic acid] reads 2000 to 20000 nM; that for `COc1c(N2CCN(c3ccccn3)CC2)c(F)cc2c(=O)c(C(=O)O)cn(-c3ccc(CN4CCCC4)cc3)c12` [Example 72, 6-fluoro-8-methoxy-4-oxo-7-(4-pyridin-2-ylpiperazin-1-yl)-1-[4-(pyrrolidin-1-ylmethyl)phenyl]-1,4-dihydroquinoline-3-carboxylic acid], less than 500 nM; that for `COc1c(N2CCN(c3ncccn3)CC2)c(F)cc2c(=O)c(C(=O)O)cn(-c3ccc(CN4CCCC4)cc3)c12` [Example 73, 6-fluoro-8-methoxy-4-oxo-7-(4-pyrimidin-2-ylpiperazin-1-yl)-1-[4-(pyrrolidin-1-ylmethyl)phenyl]-1,4-dihydroquinoline-3-carboxylic acid], less than 500 nM. As to `COc1c(N2CCN(c3ccc(F)cc3)CC2)c(F)cc2c(=O)c(C(=O)O)cn(-c3ccc(CN4CCCC4)cc3)c12` [Example 74, 6-fluoro-7-[4-(4-fluorophenyl)piperazin-1-yl]-8-methoxy-4-oxo-1-[4-(pyrrolidin-1-ylmethyl)phenyl]-1,4-dihydroquinoline-3-carboxylic acid], the IC50 was less than 500 nM. The value for `COc1c(N2CCN(c3ccccc3F)CC2)c(F)cc2c(=O)c(C(=O)O)cn(-c3ccc(CN4CCCC4)cc3)c12` [Example 75, 6-fluoro-7-[4-(2-fluorophenyl)piperazin-1-yl]-8-methoxy-4-oxo-1-[4-(pyrrolidin-1-ylmethyl)phenyl]-1,4-dihydroquinoline-3-carboxylic acid] was 500 to 2000 nM; that for `COc1c(N2CCN(c3ccc(F)cc3F)CC2)c(F)cc2c(=O)c(C(=O)O)cn(-c3ccc(CN4CCCC4)cc3)c12` [Example 76, 7-[4-(2,4-difluorophenyl)piperazin-1-yl]-6-fluoro-8-methoxy-4-oxo-1-[4-(pyrrolidin-1-ylmethyl)phenyl]-1,4-dihydroquinoline-3-carboxylic acid] was 500 to 2000 nM; that for `COc1c(N2CCN(c3ccc(C#N)cc3)CC2)c(F)cc2c(=O)c(C(=O)O)cn(-c3ccc(CN4CCCC4)cc3)c12` [Example 77, 7-[4-(4-cyanophenyl)piperazin-1-yl]-6-fluoro-8-methoxy-4-oxo-1-[4-(pyrrolidin-1-ylmethyl)phenyl]-1,4-dihydroquinoline-3-carboxylic acid] was less than 500 nM. The value for `COc1c(N2CCN(c3ccc(C(C)=O)cc3)CC2)c(F)cc2c(=O)c(C(=O)O)cn(-c3ccc(CN4CCCC4)cc3)c12` [Example 78, 7-[4-(4-acetylphenyl)piperazin-1-yl]-6-fluoro-8-methoxy-4-oxo-1-[4-(pyrrolidin-1-ylmethyl)phenyl]-1,4-dihydroquinoline-3-carboxylic acid] was 500 to 2000 nM; that for `COc1c(N2CCN(c3ncccc3C#N)CC2)c(F)cc2c(=O)c(C(=O)O)cn(-c3ccc(CN4CCCC4)cc3)c12` [Example 79, 7-[4-(3-cyanopyridin-2-yl)piperazin-1-yl]-6-fluoro-8-methoxy-4-oxo-1-[4-(pyrrolidin-1-ylmethyl)phenyl]-1,4-dihydroquinoline-3-carboxylic acid] was less than 500 nM. The result for `COc1c(N2CCN(c3ccc(Cl)cc3)CC2)c(F)cc2c(=O)c(C(=O)O)cn(-c3ccc(CN4CCCC4)cc3)c12` [Example 80, 7-[4-(4-chlorophenyl)piperazin-1-yl]-6-fluoro-8-methoxy-4-oxo-1-[4-(pyrrolidin-1-ylmethyl)phenyl]-1,4-dihydroquinoline-3-carboxylic acid] reads 500 to 2000 nM; that for `COc1c(N2CCN(c3ccccc3C#N)CC2)c(F)cc2c(=O)c(C(=O)O)cn(-c3ccc(CN4CCCC4)cc3)c12` [Example 81, 7-[4-(2-cyanophenyl)piperazin-1-yl]-6-fluoro-8-methoxy-4-oxo-1-[4-(pyrrolidin-1-ylmethyl)phenyl]-1,4-dihydroquinoline-3-carboxylic acid], 500 to 2000 nM; that for `COc1c(N2CCN(c3ccc(C(F)(F)F)cc3)CC2)c(F)cc2c(=O)c(C(=O)O)cn(-c3ccc(CN4CCCC4)cc3)c12` [Example 82], 2000 to 20000 nM.

With `COc1ccccc1N1CCN(c2c(F)cc3c(=O)c(C(=O)O)cn(-c4ccc(CN5CCCC5)cc4)c3c2OC)CC1` [Example 83, 6-fluoro-8-methoxy-7-[4-(2-methoxyphenyl)-piperazin-1-yl]-4-oxo-1-[4-(pyrrolidin-1-ylmethyl)phenyl]-1,4-dihydroquinoline-3-carboxylic acid], the IC50 fell in the range of 500 to 2000 nM.

As for `COc1c(N2CCN(c3ccccc3[N+](=O)[O-])CC2)c(F)cc2c(=O)c(C(=O)O)cn(-c3ccc(CN4CCCC4)cc3)c12` [Example 84, 6-fluoro-8-methoxy-7-[4-(2-nitrophenyl)-piperazin-1-yl]-4-oxo-1-[4-(pyrrolidin-1-ylmethyl)phenyl]-1,4-dihydroquinoline-3-carboxylic acid], the IC50 was 500 to 2000 nM.

For `COc1c(N2CCN(c3cccc(F)c3)CC2)c(F)cc2c(=O)c(C(=O)O)cn(-c3ccc(CN4CCCC4)cc3)c12` [Example 85, 6-fluoro-7-[4-(3-fluorophenyl)piperazin-1-yl]-8-methoxy-4-oxo-1-[4-(pyrrolidin-1-ylmethyl)phenyl]-1,4-dihydroquinoline-3-carboxylic acid], the IC50 is less than 500 nM. The value for `COc1c(N2CCN(c3ccc(Cl)c(Cl)c3)CC2)c(F)cc2c(=O)c(C(=O)O)cn(-c3ccc(CN4CCCC4)cc3)c12` [Example 86, 7-[4-(3,4-dichlorophenyl)piperazin-1-yl]-6-fluoro-8-methoxy-4-oxo-1-[4-(pyrrolidin-1-ylmethyl)phenyl]-1,4-dihydroquinoline-3-carboxylic acid] was 500 to 2000 nM.

With `COc1c(N2CCN(c3ccc([N+](=O)[O-])cc3F)CC2)c(F)cc2c(=O)c(C(=O)O)cn(-c3ccc(CN4CCCC4)cc3)c12` [Example 87, 6-fluoro-7-[4-(2-fluoro-4-nitrophenyl)piperazin-1-yl]-8-methoxy-4-oxo-1-[4-(pyrrolidin-1-ylmethyl)phenyl]-1,4-dihydroquinoline-3-carboxylic acid], the IC50 lay in the range of 500 to 2000 nM. The value for `COc1c(N2CCN(c3ccccc3SC)CC2)c(F)cc2c(=O)c(C(=O)O)cn(-c3ccc(CN4CCCC4)cc3)c12` [Example 88, 6-fluoro-8-methoxy-7-{4-[2-(methylthio)phenyl]-piperazin-1-yl}-4-oxo-1-[4-(pyrrolidin-1-ylmethyl)phenyl]-1,4-dihydroquinoline-3-carboxylic acid] was less than 500 nM; that for `COc1c(N2CCN(c3ccccc3C#N)CC2)c(F)cc2c(=O)c(C(=O)O)cn(-c3ccc(CN4CCCCC4)cc3)c12` [Example 89, 7-[4-(2-cyanophenyl)piperazin-1-yl]-6-fluoro-8-methoxy-4-oxo-1-[4-(piperidin-1-ylmethyl)phenyl]-1,4-dihydroquinoline-3-carboxylic acid] was less than 500 nM; that for `COc1c(N2CCN(c3ccc(Cl)cc3)CC2)c(F)cc2c(=O)c(C(=O)O)cn(-c3ccc(CN4CCCCC4)cc3)c12` [Example 90, 7-[4-(4-chlorophenyl)piperazin-1-yl]-6-fluoro-8-methoxy-4-oxo-1-[4-(piperidin-1-ylmethyl)phenyl]-1,4-dihydroquinoline-3-carboxylic acid] was less than 500 nM.
